Here are results for 3 compounds from patent US20240207299A1, “PYRROLOPYRIMIDINE NUCLEOSIDES FOR TREATING OR PREVENTING A SARS-COV-2 INFECTION” (Chimerix, Inc., priority 2021, published 2024).

The subject of one series is WIV1. As to the kind of experiment: microbe, parasite or virus in culture. Particulars: HAE cells. It is filed as cell-based, bat-derived SARS-like coronavirus.
Series [1] is described as follows: Tolerability of single inhaled aerosol dose in healthy BALB/c mice. It is filed as in vivo. The settings on record: 5 mg aerosol single dose; dosing period and 8-hour post-dose period. How it is done: Tolerability and pharmacokinetics (PK) of a single dose of Compound 1 delivered as aerosol via nebulized liquid in a flow-past pie-chamber model to healthy BALB/c mice. Compound 1 and Compound 60 concentrations were evaluated in plasma and lung tissue were determined.
Nine female, 9-11 week old BALB/c mice were housed in 9 individual wedges of the inhalation device described above. The input holes of the remaining 3 wedges were taped off to maximize delivery to the 9 mice. A liquid formulation of 5 mg/mL Compound 1 (pH 6.0) was prepared immediately prior to dosing and dispensed into the compressor chamber. The entire contents (9 mL) of the formulation solution were aerosolized and delivered to the 9 mice over a period of 20-30 min. This method delivered 5 mg Compound 1 to each wedge containing a single mouse over the period of nebulization.
Mice were monitored for adverse clinical signs with special attention given to signs related to eye irritation.

A short description of series [2]: Cytotoxicity without virus, neutral red, Vero E6 cells. It is filed as cell-based. Particulars: African green monkey; Neutral Red in Vero E6 cells; read-out: CC50: 50% cytotoxic concentration of compound without virus added. How it is done: Neutral red assay in Vero E6 cells: Compound dilutions were added to 96-well plates containing 80-100% confluent Vero E6 cells. Cells were incubated with compound for 1-2 hours and then infected with virus at a low MOI to achieve >80% cytopathic effect (CPE) within 5 days of incubation. On day 3 post-infection, CPE was quantitated by neutral red staining. Briefly cells were stained with neutral red for 2 hours, dye removed, and wells rinsed with PBS. The incorporated dye was extracted in Sorensen citrate buffer/ethanol (50:50) and absorbance measured on a spectrophotometer at 540 nm. Compound dilution that reduced virus CPE by 50% (EC50) was calculated along with cytotoxicity in the absence of virus infection (CC50).

Another series in a line: in vivo. The settings on record: female, BALB/c, mouse, 5 mg.
For series [3], the system named is SARS-CoV-2 (USA-WA1/2020). As to the kind of experiment: Neutral red CPE assay in Vero E6 cells. It is filed as cell-based. The settings on record: for EC50: Severe acute respiratory syndrome coronavirus 2, Vero C1008, 72 h, read-out: EC50: 50% effective antiviral concentration.
Series [4] concerns SARS-CoV-2. As to the kind of experiment: hACE2 transgenic mouse model of SARS-CoV-2 disease. Type of series: in vivo, human ACE2 transgenic mouse. Particulars: 50 mg/kg once per day intraperitoneal, Day 5.
Series [5] concerns SARS-CoV-2 (USA-WA1/2020). As to the kind of experiment: microbe, parasite or virus in culture. Type of series: cell-based. Particulars: Severe acute respiratory syndrome coronavirus 2, Caco-2, 72 h, read-out: EC90: Calculated concentration to reduce virus yield by 1 log (90%) (converted).
For series [6], the system named is Murine hepatitis virus (MHV) strain MHV-A59 (nLuc reporter). Kind of series: microbe, parasite or virus in culture. It is filed as cell-based. The settings on record: Murine coronavirus.
Series [7] in a line: Genotoxicity / mitotoxicity.
For another series, the system named is uninfected cells. As to the kind of experiment: Cytotoxicity in uninfected cells, Sigma TOX7 LDH release. It is filed as cell-based. The settings on record: any concentration. How it is done: For each assay, percent inhibition was calculated by comparing luciferase activity in cells treated with compound to that in cells treated with vehicle (DMSO) control. Cells were treated with 2.5 μM remdesivir as a control where indicated. Cytotoxicity was measured in uninfected cells in parallel assays using the Sigma TOX7 assay for LDH release.
On the technique in general: LDH in the medium is a marker of cell lysis.

A short description of another series: Oral GLP toxicology. Particulars: rats/dogs.
Series [8] is described as follows: Cytotoxicity, neutral red, Caco2 cells. Type of series: cell-based. The settings on record: human, read-out: CC50: 50% cytotoxic concentration of compound without virus added. How it is done:
Virus yield reduction assay in Caco-2 cells: The virus yield reduction (VYR) assay set up was similar to that described for the neutral red assay excepting Caco2 cells were used. On day 3 post-infection, cell culture supernatant from wells was collected and infectious virus determined by running a standard endpoint dilution CCID50 assay. Compound dilution that reduced virus yield by 1 log10 was calculated. After collection of cell culture supernatant from wells on day 3 post-infection, plates were stained as described in the neutral red assay to determine CC50 in Caco2 cells.

Another series concerns SHC014. Kind of series: microbe, parasite or virus in culture. It is filed as cell-based, bat-derived SARS-like coronavirus. Particulars: HAE cells.
In series [9] the test system is SARS-CoV-2 strain USA-WA1 2020 (nLuc reporter). Kind of series: microbe, parasite or virus in culture. It is filed as cell-based.
For series [10] the following is noted: individual animals; for Plasma Compound 1 Concentration: 5 mg delivered dose, aerosol, single dose.
A short description of series [11]: Healthy volunteer Phase 1 study of oral Compound 1. The settings on record: healthy volunteers.
Series [12] has as its system SARS-CoV-2. The settings on record: MRC5 cells; cited from earlier work.
The mark [13] stands for this setting: Severe acute respiratory syndrome-related coronavirus, HAE.
[14] abbreviates: Mean Plasma Compound 1 Concentration.
[15] abbreviates: Plasma Compound 1 Concentration.
The mark [16] stands for this setting: 5 mg Compound 1 aerosol, 1 hr post-dose.
[17] abbreviates: 5 mg Compound 1 aerosol, 3 hr post-dose.

Values joined by “and” are separate entries in the source; they are usually repeats but may differ in a detail not shown here. Equal values may be shown once. “Also recorded” adds a separate entry of the source. Read-outs that look alike come from different tables or passages of the source.

As for `Cc1nc(N)c2c(C(N)=O)cn([C@@H]3O[C@H](CO)[C@@H](O)[C@H]3O)c2n1` [Compound 1, 4-amino-7-((2R,3R,4S,5R)-3,4-dihydroxy-5-(hydroxymethyl)tetrahydrofuran-2-yl)-2-methyl-7H-pyrrolo[2,3-d]pyrimidine-5-carboxamide], the EC50 with WIV1 was 1.01 µM; in the series on WIV1 (setting [13]), roughly 1 µM; in [3] it was 56 µM; in series [6], 0.38 µM; in the series on SHC014, 0.98 µM; in the series with SHC014 (setting [13]), roughly 1 µM. The EC50 came to 0.94 µM in series [9] (HAE cells donor code yellow, 8 point dose-response curve, read-out: EC50); 0.9 µM in series [9] (Severe acute respiratory syndrome coronavirus 2, Epithelial cell, read-out: average EC50, SARS-CoV-2 replication); 0.55 µM in series [9] (Severe acute respiratory syndrome coronavirus 2, HAE, HAE cells donor code blue, 5 point dose-response curve, read-out: EC50); 0.38 µM in [9] (Severe acute respiratory syndrome coronavirus 2, HAE, HAE cells donor code purple, 5 point dose-response curve, read-out: EC50); 0.31 µM in series [9] (Severe acute respiratory syndrome coronavirus 2, HAE, HAE cells donor code yellow, 4 point dose-response curve, read-out: EC50); 0.16 µM in series [9] (Severe acute respiratory syndrome coronavirus 2, HAE, HAE cells donor code yellow, 5 point dose-response curve, read-out: EC50). Moreover, the EC50 was 0.35 µM in [9] (Severe acute respiratory syndrome coronavirus 2, HAE, HAE cells donor code yellow, 7 point dose-response curve, read-out: EC50); 1.1 µM in series [9] (Severe acute respiratory syndrome coronavirus 2, HAE, HAE cells donor code yellow, 8 point dose-response curve, read-out: EC50); 0.54 µM in [9] (Severe acute respiratory syndrome coronavirus 2, HAE, mean of the HAE cell determinations, read-out: Mean SARS-CoV-2 EC50); 0.54 µM in series [9] (mean of the HAE cell determinations, read-out: Mean SARS-CoV-2 EC50). In addition, the “clinical signs of irritation or intolerability” value in series [1] was “No clinical signs of irritation or intolerability”. The CC50 at 3 days in series [2] and in [8] was greater than 100 µM throughout. In “in vivo”, this compound gave a Kp of roughly 20. This compound also showed a Kp at 8 h in the series “in vivo” of roughly 12. Besides, the concentration at 1 h worked out at 0.0418 µg/mL in the series “in vivo” (setting [14]) and 0.0325 µg/mL in “in vivo” (setting [15]). Also, the results for the concentration at 3 h in the series “in vivo” (setting [14]) and in the series “in vivo” (setting [15]) were 0.018 µg/mL and 0.0185 µg/mL, respectively. In addition, the concentration at 8 h in the series “in vivo” (setting [14]) turned out to be 0.0133 µg/mL; in the series “in vivo” (setting [15]), 0.0119 µg/mL. Also, the “SI: Selectivity Index (CC50/EC50)” value in [3] (Neutral Red in Vero E6 cells) is on record as greater than 1.8. For the same compound, the “average Cq, virus genome in lungs (qPCR)” value with SARS-CoV-2 [4] (started 4-6 h after challenge, vehicle Cq 23) came to 22. Also, the “effect on virus genome levels in lungs / efficacy” value with SARS-CoV-2 [4] is given as “did not alter the virus genome levels detected in lungs; also recorded: not effective at inhibiting SARS-CoV-2”. For the same compound, the “Cq of one male mouse with lower than expected virus genome loads” value with SARS-CoV-2 [4] (likely failure of challenge or RNA recovery) turned out to be 38. The EC90 in [5] was 2.1 µM. Also, the genotoxicity / mitotoxicity result in [7] is given as “not genotoxic or mitotoxic”. Further, the “Effect on cell viability” value in the series with uninfected cells is listed as “No effect on cell viability was seen at any concentration”. Further, the toxicology profile entry in the series “Oral GLP toxicology” is recorded as “favorable toxicology profile”. The “Lung tissue Compound 1 concentration, Middle lobe” value in series [10] (setting [16]) was 1323 pmol/g and 988 pmol/g and 1061 pmol/g; in series [10] (5 mg Compound 1 aerosol, 8 hr post-dose) it was 73 pmol/g and 137 pmol/g and 99 pmol/g. For the same compound, the “Lung tissue Compound 1 concentration, PC lobe” value in series [10] (setting [16]) was 986 pmol/g and 673 pmol/g and 430 pmol/g. In addition, the “Lung tissue Compound 1 concentration, Superior lobe” value is 1867 pmol/g and 1219 pmol/g and 1212 pmol/g in series [10] (setting [16]); 398 pmol/g and 167 pmol/g and 305 pmol/g in series [10] (setting [17]). Besides, the “Lung tissue Compound 1 concentration, Inferior lobe” value in [10] (setting [17]) is 209 pmol/g and 93 pmol/g and 110 pmol/g. Further, in series [10] (setting [17]), the “Lung tissue Compound 1 concentration, Left lobe” value is 106 pmol/g and 116 pmol/g and 140 pmol/g. Also, the “Plasma Compound 1 Concentration” value in [10] (1 hr post-dose) was 39.1 ng/mL and 53.7 ng/mL; in [10] (3 hr post-dose), 20.8 ng/mL and 14.8 ng/mL; in series [10] (8 hr post-dose) it was 15.4 ng/mL and 12.6 ng/mL. For the same compound, the generally well-tolerated dose entry in series [11] was “up to 2400 mg”.
Regarding `NC(=O)c1cn([C@@H]2O[C@H](CO)[C@@H](O)[C@H]2O)c2ncnc(N)c12` [Sangivamycin, reference compound], the CC50 at 3 days in [2] was 0.01 µM; in [8], 0.12 µM. For the same compound, the “SI: Selectivity Index (CC50/EC50)” value in series [3] (Neutral Red in Vero E6 cells) is on record as 1.9. For the same compound, the EC50 in series [3] (Neutral Red in Vero E6 cells, day 3 post-infection) came to 0.007 µM. The EC90 in [5] was 0.12 µM.
As for `CNc1nc(N)nc2c1ncn2[C@@H]1O[C@H](COP(=O)(N[C@@H](C)C(=O)OC(C)C)Oc2ccccc2)[C@@H](O)[C@@]1(C)F.CNc1nc(N)nc2c1ncn2[C@@H]1O[C@H](COP(=O)(N[C@@H](C)C(=O)OC(C)C)Oc2ccccc2)[C@@H](O)[C@@]1(C)F.O=S(=O)(O)O` (stereo partly shown) [AT-527], the “antiviral activity against SARS-CoV-2” value with SARS-CoV-2 [12] is reported as “lack of antiviral activity against SARS-CoV-2”.
